Results on one sequence are retold here after patent publication EP4559473A1, “PEPTIDE FOR THE TREATMENT OF DISEASES ASSOCIATED WITH APOLIPOPROTEIN AI OR TRANSTHYRETIN INVOLVEMENT” (Centro de Ingeniería Genética y Biotecnología, priority 2022, dated 2025).

Ends that are not written are not given here.

Data set [1] in a line: Treatment of patients with ischemic heart disease and high blood pressure. It counts as in vivo. Particulars: six patients, 1 mg every 12 hours intravenously for seven days; clinical and imaging evaluation. As to the method: It is exemplified with the results of six patients. They presented ischemic heart disease, associated with high blood pressure, which produced a state of severity. They were treated in the Intermediate Care Unit (IMCU) of the "Luis Díaz Soto" hospital in Havana. These patients were treated with a pharmaceutical composition comprising the peptide identified as SEQ ID NO: 1, so that a peptide dose of 1 mg every 12 hours was administered intravenously for seven days. In addition, they received the standard therapy needed for these cases.
The treatment with this peptide was very safe, and verified by monitoring blood biochemistry parameters and differential blood count.

Data set [2] can be described thus: Treatment of patients with type II diabetes (diabetic decompensation). It counts as in vivo. Particulars: five patients, 1 mg every 12 hours intravenously for eight days; clinical and imaging evaluation. As to the method:
It is exemplified with ten patients who had diabetic decompensation and reached a state of severity, that let them to be treated in the ICU of the hospital "Luis Díaz Soto" in Havana. Five of these patients were treated with a pharmaceutical composition comprising the peptide identified as SEQ ID NO: 1, so that a peptide dose of 1 mg every 12 hours was administered intravenously for eight days. In addition, they received the standard therapy needed for these cases.
Treatment with this peptide was very safe and was verified by monitoring blood biochemistry parameters and differential blood count.

Consider “SIDLKDKYKNIGAKLVQLVANNTNEEA [peptide identified as SEQ ID NO: 1]”, for which the side effects result in data set [1] and in data set [2] was “No side effects were observed” throughout.
